According to patent US10611764B2 (Wisconsin Alumni Research Foundation, priority 2017, dated 2020):
Positions count from the first letter of the chain named.

How the values were obtained:
[1] = Solubility in commonly used (NMR) solvents; assay type: physicochemical
[2] = target: T1, mouse AHR (mAHR B1-allele) (Mus musculus, UniProt P30561, M589L/N533S/P471L); assay: cell-based
T1 sequence (P30561 10-805 P471L/N533S/M589L): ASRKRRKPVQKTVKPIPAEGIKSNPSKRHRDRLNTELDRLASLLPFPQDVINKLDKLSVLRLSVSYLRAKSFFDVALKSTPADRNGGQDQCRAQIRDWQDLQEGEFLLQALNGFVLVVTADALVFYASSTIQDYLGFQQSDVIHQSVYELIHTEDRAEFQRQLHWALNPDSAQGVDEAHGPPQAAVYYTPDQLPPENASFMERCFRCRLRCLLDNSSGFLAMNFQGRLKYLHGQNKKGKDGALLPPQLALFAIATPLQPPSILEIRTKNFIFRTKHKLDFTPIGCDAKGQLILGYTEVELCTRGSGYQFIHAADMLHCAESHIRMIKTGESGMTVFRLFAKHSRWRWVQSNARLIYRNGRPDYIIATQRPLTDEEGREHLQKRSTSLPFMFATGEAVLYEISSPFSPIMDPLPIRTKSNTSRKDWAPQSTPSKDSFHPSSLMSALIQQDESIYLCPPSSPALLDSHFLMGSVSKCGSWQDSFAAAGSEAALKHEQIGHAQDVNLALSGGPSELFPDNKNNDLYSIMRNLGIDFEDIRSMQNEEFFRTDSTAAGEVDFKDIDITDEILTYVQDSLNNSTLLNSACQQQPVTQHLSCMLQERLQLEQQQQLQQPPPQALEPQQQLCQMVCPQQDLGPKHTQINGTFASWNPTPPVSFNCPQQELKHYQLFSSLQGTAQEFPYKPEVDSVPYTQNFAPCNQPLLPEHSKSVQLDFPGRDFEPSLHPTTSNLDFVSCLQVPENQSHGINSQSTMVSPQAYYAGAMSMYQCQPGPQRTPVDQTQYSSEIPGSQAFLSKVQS
Experimental: The wild type and mutant mAHR were cloned into the XhoI/SalI cloning sites of pTARGET (Promega, Madison, Wis.) using routine PCR and molecular cloning procedures using the pSport-mAHR plasmid (PL65) as template (Dolwick, Swanson et al. 1993). For recombinant expression of mAHR, COS-1 cells were cultured in 6 cm dishes and transfected with 2 μg of wild-type or mutant mAHR expression vector. Twenty-four hours after transfection, cells were collected, and the whole cell extracts were prepared by celLytic M reagent (Sigma-Aldrich, St Louis, Mo.). 100 μg of whole cell extract was analyzed by western blot using antibodies that specifically recognize the mAHR (bear-2) and β-actin (Sigma).
COS-1 cells were cultured in 96-well plates and transiently transfected with pTarget vector containing the expression cassette of wild-type or mutant mAHR, or empty vector (3 ng), together with pGudLu6.1 DREs-driven luciferase reporter vector (14 ng) (Han, Nagy et al. 2004) and TK-renilla luciferase vector (3 ng) (Invitrogen, Carlsbad Calif.). […] The expressed luciferase activity was measured by ENSPIRE plate reader (Perkin Elmer, USA). Data analysis and simulation of dose response curves were performed using GraphPad Prism 5 (GraphPad software Inc., La Jolla, Calif.). The experiments were performed in triplicate and repeated at least three times. Representative results of one repeat are shown as mean±SEM.

[3] = tested on: mAHR H285A mutant; assay: Luciferase reporter gene assay, mutant mAHR H285A in COS-1 cells; assay type: cell-based, mouse; conditions: relative to WT mAHR
[4] = target: T2, mAHR Q377A mutant (Mus musculus, UniProt P30561, Q377A); assay: Luciferase reporter gene assay, mutant mAHR Q377A in COS-1 cells; assay type: cell-based; conditions: relative to WT mAHR
T2 construct: expressed in transfected cells; host or cells: COS-1
T2 sequence (P30561 10-805 Q377A limits assumed): T1 sequence (P30561 10-805 P471L/N533S/M589L) with Q368A, L462P, S524N, L580M

[5] = tested on: Salmonella typhimurium tester strains (TA97a, TA98, TA100, and TA1535) and Escherichia coli strain (WP2 uvrA pKM101); assay: Ames screening; conditions: with and without S9, 7.8-250 ng/well
Experimental: The Ames screening detects both frameshift and base-pair substitution mutations using 4 Salmonella typhimurium tester strains (TA97a, TA98, TA100, and TA1535) and 1 Escherichia coli strain (WP2 uvrA pKM101). Strains TA97a and TA98 detect frameshift mutations, and TA100, TA1535, and WP2 uvrA pKM101 detect base-pair substitution mutations. This scaled-down Ames test uses minimal compound, is conducted with and without metabolic activation (S9 fraction), and uses multiwell plates. The Ames screen for TEACOP 270 was tested in duplicate with strains TA97a, TA98, TA100, TA1535, and WP2 uvrA pKM101 in the presence and absence of a metabolic activation system (Aroclor™ 1254 induced rat liver S9 microsomal fraction) at 7.8, 15.5, 31, 62.5, 125, and 250 ng/well. Positive control compounds were used at 4 different concentrations to ensure the assay system was sensitive to known mutagenic compounds. DMSO was used as the vehicle control.

C1=Cc2c3ccccc3nc3nc4ccccc4c(c23)N1 [Compound 4]
solubility in CDCl3 ([1]; TFA salt): good solubility
solubility ([1]; free base form): poor solubility
solubility in commonly used solvents (CDCl3, CD3OD, DMSO-d6, etc) ([1]; isolated material): very poor solubility
EC50 [2]: 0.378 nM
fold lower measured activity than Compound 4 ([2]; purified sample largely contaminated by lipids, FIG. 5c): more than 10 fold
effect of H285A mutation on AHR induction activity [3]: drastically affected
effect of Q377A mutation on AHR induction activity [4]: barely affected
mutagenicity (Ames test) [5]: No mutagenicity is detected
